Results reported in patent US20250009734A1, “METHODS OF INHIBITING FOXO1 FOR TREATMENT OF LYMPHATIC DISORDERS” (UNIVERSITY OF SOUTH FLORIDA, priority 2023, published 2025).

What was measured:
Foxc2^+/CreERT2 mice [1] = assay: Mesenteric lymphatic valve counting after i.p. injection in pups; assay type: in vivo, mouse
Excerpt: FIGS. 3A-3F. AS1842856 treatment in vivo increases valve number in Foxc2^+/CreERT2 mice. (A) Schematic illustration of AS1842856 injection procedure in postnatal day (P) 7-21 pups. (B-E) Fluorescent images showing the morphology of mesenteric collecting lymphatic vessels at P21. Mesenteries are from Prox1-GFP with DMSO (vehicle control) injection (B); Prox1-GFP with AS1842856 injection (C); Foxc2^+/CreERT2; Prox1-GFP with DMSO injection (D); Foxc2^+/CreERT2; Prox1-GFP with AS1842856 injection (E). (F) Quantification of valves per millimeter at P21 from 4 groups of mice. 4 mice are used for the analysis. All values are mean±SEM. Two-way ANOVA was performed with Turkey's multiple comparisons. ns=not significant, *p≤0.05, ***p<0.001. Scale bar is 1000 μm.
(§1) Foxc2 is a chief regulator of lymphatic valve development modulating the expression of many valve genes (Sabine et al., 2015). While Foxc2 null animals are embryonic lethal, the Foxc2 heterozygous mice are a model of the human disease lymphedema-distichiasis with severe lymphatic valve loss (Kriederman et al., 2003, Petrova et al., 2004). To test whether AS1842856 treatment increases valve growth in vivo, the inventors intraperitoneally (i.p.) injected AS1842856 into Foxc2^+/CreERT2 pups. Instead of using wildtype pups as control, Prox1-GFP mice were used as control as well as for visualizing the lymphatic vasculature (Choi et al., 2011). The Foxc2^+/CreERT2 pups were also bred to carry the Prox1-GFP allele. Since the open reading frame in one allele of the Foxc2 gene is replaced with the cDNA for CreERT2, the Foxc2^+/CreERT2 mice is heterozygous for Foxc2 gene (Geng et al., 2016). […] To compare the number of valves from these 4 groups, the inventors counted total number of valves from 6 branches (from the lymph nodes to the gut wall) in the mesentery and measured the total length of these branches as previously published (Scallan et al., 2021). […]
TM administered postnatal pups were euthanized using an IACUC approved method and the colleting lymphatics were analyzed at the experimental timepoints. […]

Foxc2^+/CreERT2 mice [2] = assay: Whole-mount immunostaining of mesenteric collecting lymphatic vessels after injection; assay type: in vivo, mouse
Excerpt: FIG. 4. AS1842856 injection promotes b-catenin nuclear localization in vivo. Panels A-P′ show whole-mount immunostaining of P10 mesenteric collecting lymphatic vessels from wildtype and Foxc2^+/CreERT2 pups with vehicle control (DMSO) or AS1842856 injection. Prox1 in green, Ctnnb1 in purple, and VE-cadherin in gray. A′-P′ are the higher magnification images of the white box areas in A-P. Scale bars are 100 μm.
as §1, with “Instead of using wildtype pups as control, Prox1-GFP mice were used as control as well as for visualizing the lymphatic vasculature (Choi et al., 2011). The Foxc2^+/CreERT2 pups were also bred to carry the Prox1-GFP allele.” left out

FOXO1 = FOXO1 (Homo sapiens, UniProt Q12778); conditions: binds to FOXO1 protein, prevents binding to promoter regions; Nagashima et al., 2010; cited from earlier work
FOXO4 = FOXO4 (Homo sapiens, UniProt P98177); conditions: Nagashima et al., 2010; cited from earlier work
FOXO4, sequence (P98177 whole entry, species assumed): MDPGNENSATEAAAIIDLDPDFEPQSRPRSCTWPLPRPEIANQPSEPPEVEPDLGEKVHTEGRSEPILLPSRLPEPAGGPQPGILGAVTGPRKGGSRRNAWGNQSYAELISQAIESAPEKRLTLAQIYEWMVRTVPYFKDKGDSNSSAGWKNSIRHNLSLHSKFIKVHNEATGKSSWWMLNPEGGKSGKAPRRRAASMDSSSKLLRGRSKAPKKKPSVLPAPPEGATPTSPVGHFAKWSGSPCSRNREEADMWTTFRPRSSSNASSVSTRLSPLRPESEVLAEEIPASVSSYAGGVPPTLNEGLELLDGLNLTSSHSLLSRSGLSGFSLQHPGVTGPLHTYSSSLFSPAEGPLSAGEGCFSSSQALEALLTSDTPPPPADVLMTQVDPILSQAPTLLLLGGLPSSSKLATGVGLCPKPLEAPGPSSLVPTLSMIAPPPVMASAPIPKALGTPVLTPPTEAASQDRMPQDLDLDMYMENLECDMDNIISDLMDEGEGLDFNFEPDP

FOXO1, sequence (Q12778 whole entry, species assumed): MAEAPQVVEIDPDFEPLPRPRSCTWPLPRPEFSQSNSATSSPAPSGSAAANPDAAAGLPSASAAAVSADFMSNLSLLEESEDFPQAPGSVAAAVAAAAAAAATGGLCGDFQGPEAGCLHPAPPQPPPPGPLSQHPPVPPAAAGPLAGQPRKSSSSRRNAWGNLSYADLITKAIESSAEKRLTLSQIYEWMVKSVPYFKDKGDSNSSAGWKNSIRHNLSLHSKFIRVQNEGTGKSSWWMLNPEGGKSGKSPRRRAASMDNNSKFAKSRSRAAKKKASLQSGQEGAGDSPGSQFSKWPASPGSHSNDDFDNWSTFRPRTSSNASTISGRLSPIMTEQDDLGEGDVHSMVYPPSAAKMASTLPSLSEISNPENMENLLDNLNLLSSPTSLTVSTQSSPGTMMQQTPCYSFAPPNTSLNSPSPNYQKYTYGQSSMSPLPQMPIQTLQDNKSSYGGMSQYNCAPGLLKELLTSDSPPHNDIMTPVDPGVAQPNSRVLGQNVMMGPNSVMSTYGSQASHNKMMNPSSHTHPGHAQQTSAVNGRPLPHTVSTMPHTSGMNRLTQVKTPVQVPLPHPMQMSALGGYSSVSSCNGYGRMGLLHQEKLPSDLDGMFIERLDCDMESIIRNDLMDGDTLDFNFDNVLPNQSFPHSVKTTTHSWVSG

CCn1cc(C(=O)O)c(=O)c2c(N)c(F)c(NC3CCCCC3)cc21 [AS1842856]
valves/mm in mesentery (Foxc2^+/CreERT2 mice [1]; Foxc2^+/CreERT2 pups with AS1842856 injection (8 mg/kg i.p. every other day P7-P21) vs Foxc2^+/CreERT2 pups with DMSO injection): significantly higher | valves/mm in mesentery (Foxc2^+/CreERT2 mice [1]; Foxc2^+/CreERT2 pups with AS1842856 injection (8 mg/kg i.p. every other day P7-P21) vs Prox1-GFP pups with DMSO injection): still significantly lower | valves/mm in mesentery (Foxc2^+/CreERT2 mice [1]; Prox1-GFP pups with AS1842856 injection (8 mg/kg i.p. every other day P7-P21) vs Prox1-GFP pups with DMSO injection): no significant difference | valves expressing Itga9 (whole-mount immunostaining) (Foxc2^+/CreERT2 mice [2]; AS1842856 treated Foxc2^+/CreERT2 pups): all the valves | nuclear localization of β-catenin in mesenteric LECs in vivo (Foxc2^+/CreERT2 mice [2]; P10 mesenteries after two injections, wildtype and Foxc2^+/CreERT2 pups, vs DMSO injected group): increased nuclear purple staining from β-catenin | effect on transcription activity of FOXO1 in the nucleus (FOXO1): reduces the transcription activity of FOXO1 | effect on inhibiting the activity of FOXO4 (FOXO4): minimal effect
